Reference: patent US20030096015A1, “Cytogenic/nucleogenic healing” (priority 1997, published 2003)

Test system: multiple of infections (MOI)

OC[C@H]1O[C@@](CO)(O[C@H]2O[C@H](CO)[C@@H](O)[C@H](O)[C@H]2O)[C@@H](O)[C@@H]1O [5% Sucrose, sucrose]
bacterial and viral growth / resistance to proteolysis by MOI (medium streaked with mixed MOI culture): bacterial activity and viral replication at exponential rate | Comparative Degree of Resistance (resistance to proteolysis by MOI, ambient temperature (24° C.)): 5.0 h | Relative Resistance (resistance to proteolysis by MOI, ambient temperature (24° C.), 5% Sucrose = 1.0): 1.0
